Reference: US11628151B2, “N,N-bis-2-mercaptoethyl isophthalamide for the treatment of neurodegenerative diseases” (EMERAMED LIMITED, priority 2014, dated 2023)

Tests used:
[1] = biological target: T1, Aβ42 (Homo sapiens, UniProt P05067); assay: Aggregation state of Aβ42 in media and cell lysate of primary microglia cultures (ELISA); assay type: cell-based; settings: in the media and in the cell lysate, FIG. 3
T1 construct: Aβ42 stock was solubilized in DMSO at a concentration of 2 mM; host or cells: added to primary microglia cultures
Experimental: Aβ42 stock was solubilized in DMSO at a concentration of 2 mM, vortexed and sonicated for 2 minutes to ensure complete dissolution. Aβ42 was diluted in 50 mM NaPi, 100 mM NaCl (pH 7.4) buffer at a concentration of 200 μM and was used within 3 hours at a final concentration of 200 nM. TNF-α secretion from primary microglia and the BV2 cell line was valued by a specific sandwich-type enzyme-linked immunoabsorbent assay (ELISA) (Duoset, R&D system) according to the manufacturer's instructions. Intracellular concentration of Aβ42 was measured using a specific sandwich-type ELISA assay (human Aβ42 kit, Invitrogen, KHB3441 and mouse/rat, IBL 27721; Immuno-Biological Laboratories Co., Ltd., Japan) according to the manufacturer's instructions. Homogenization was performed with a cold 4× volume of PBS supplemented with the 1× protease inhibitor cocktail, followed by the addition of a solution 8.2 M guanidine/82 mM Tris HCl (pH 8.0) to yield a solution with a 5M final guanidine concentration.

[2] = test system: microglia; assay: Internalization of Aβ42 by microglia; assay type: cell-based; settings: following Aβ42 administration; FIG. 2B
Experimental: (§1) Aβ42 stock was solubilized in DMSO at a concentration of 2 mM, vortexed and sonicated for 2 minutes to ensure complete dissolution. Aβ42 was diluted in 50 mM NaPi, 100 mM NaCl (pH 7.4) buffer at a concentration of 200 μM and was used within 3 hours at a final concentration of 200 nM.
(§2) TNF-α secretion from primary microglia and the BV2 cell line was valued by a specific sandwich-type enzyme-linked immunoabsorbent assay (ELISA) (Duoset, R&D system) according to the manufacturer's instructions. Intracellular concentration of Aβ42 was measured using a specific sandwich-type ELISA assay (human Aβ42 kit, Invitrogen, KHB3441 and mouse/rat, IBL 27721; Immuno-Biological Laboratories Co., Ltd., Japan) according to the manufacturer's instructions.
N9 cells were treated with 200 nM Aβ42488 (Anaspect), and AR internalization was recorded in culture for 24 hours after AR administration using a CelIR microscope, with the image processed using CelIR software.

[3] = test system: TNF-α; assay: Primary microglia activation (TNF-α release, ELISA) following Aβ42 administration; assay type: cell-based; settings: FIG. 2A
Experimental: as §1
(§3) After 10 days' incubation, neurons were used in experiments. Where indicated, cells were pre-treated for 30 minutes with NBMI (10 nM) added directly to the cell culture medium.
as §2

[4] = test system: primary neurons incubated with oligomeric Aβ42; assay: Aβ42-induced cell death in primary neurons co-cultured with N9 cells (MTT viability); assay type: cell-based, mice; settings: primary neurons incubated with oligomeric Aβ42 (200 nM), NBMI 10 nM pre-treatment 30 minutes, FIG. 1
Experimental: as §1
Primary cultures of cortical neurons were prepared from the cerebral cortex of mice at embryonic stage 17 (E17). The cells from each cortex were seeded separately on poly-L-ornithine (Sigma) pre-coated 6-well plates at a density of 0.25×10^6 cells/cm^2 in Neurobasal media containing B27 supplement with antioxidant, 1% penstrep and 1% glutamine.
as §3
To determine cell viability, cells were washed with PBS (pH 7.4). MTT solution (3-(4,5-dimethylthiazol-2yl)-2,5-diphenyl tetrazolium bromide) was added to cells for 30 minutes at 37° C. After three washes, the insoluble formazan product was dissolved in dimethyl sulfoxide. The optical density of each culture well was then measured using a micro-plate reader (Molecular Probes, Garching, Germany) at 550 nm. The optical density of formazan formed in control cells was taken as 100% of viability. […]

[5] = test system: A549 and BEAS-2B cells; assay: Particle-induced secretion of pro-inflammatory cytokines in lung epithelial cell lines (overall); assay type: cell-based
Experimental: Secretion of the pro-inflammatory cytokines interleukin (IL)-6, IL-8 (as well as GM-CSF and MCP-1) into cell media in response to particle exposure was measured in A549 and BEAS-2B cells using the following method.
Lung epithelial cells were seeded at 5×10^4 in 24-well plates. After pre-incubation with NBMI, the antioxidant compound, N-acetyl-L-cysteine (NAC), which was used as a positive control, or vehicle, for 3 hours the medium was removed.
Fresh media containing various particles (as below) in different concentrations was in a total volume of 0.5 ml for an additional 24 hours. The supernatants were then separated from the cells by centrifugation.
IL-8, IL-6, GM-CSF and MCP-1 were measured in the cell free fluid using the DuoSet ELISA Development kit (R&D Systems, Abingdon, UK) according to manufacturer's protocol.
Exposure to medium only served as negative control. Each experiment was performed twice with 4 replicates.
The effect of pre-incubation with 50 μM NBMI on particle-induced cytokine formation was tested at various concentrations of particles.

T1 sequence (P05067 672-713 limits assumed): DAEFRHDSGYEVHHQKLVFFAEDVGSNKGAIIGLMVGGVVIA

Row | Structure (SMILES) | aggregation state of Aβ42 [1] | internalization of Aβ42 by microglia [2] | primary microglia activation (evaluated as TNF-α release) [3] | Aβ42-induced cell death [4] | particle-induced secretion of pro-inflammatory cytokines ([5]; both cell lines (A549, BEAS-2B), pre-incubation with 50 μM NBMI) | secretion of inflammatory cytokines ([5]; pre-incubation with 5 mM NAC (positive control))
1 | O=C(NCCS)c1cccc(C(=O)NCCS)c1 [NBMI, N,N-bis-2-mercaptoethyl isophthalamide] | changed | modulated | blocked | reduced | can reduce | –
2 | CC(=O)N[C@@H](CS)C(=O)O [NAC, N-acetyl-L-cysteine, reference compound] | – | – | – | – | – | effective in reducing
